Here are results for seven compounds from patent US4640910A (Abbott Laboratories, priority 1985, dated 1987).

In brackets after ≈: the same amount, converted by molar mass. Like-named read-outs stand apart in the source and are kept apart here.

One data set has as its system indicated test organism. In words: Acute mouse protection test. Particulars: 1 and 5 hours post-infection, 7 days, * = highest level tested. The data set is classed as in vivo, female, Swiss albino mice.
For data set [1], the system named is Lactobacillus casei ATCC 7469. In words: Antimicrobial spectrum, agar dilution MIC. The format is cell-based. Particulars: Lacticaseibacillus casei, ATCC7469.
The test system of the next data set is Staph. aureus. Description: Extended mouse protection study. Particulars: oral.
Another data set deals with Strep. pyogenes 930. Description: Antimicrobial spectrum, agar dilution MIC. The format is cell-based. Conditions: Streptococcus pyogenes, BHI agar, 35°-37° C., 20-24 hours. (In general: Agar dilution tests growth on a series of plates holding different concentrations.)
Data set [2] concerns Enterobact. aerogenes ATCC 13048. In words: Antimicrobial spectrum, agar dilution MIC. The format is cell-based. Particulars: Enterobact. aerogenes ATCC 13048; BHI agar, 35°-37° C., 20-24 hours; read-out: MIC.
The test system of data set [3] is Providencia stuartii CMX 640. In words: Antimicrobial spectrum, agar dilution MIC. Conditions: CMX640; Providencia stuartii CMX 640; BHI agar, 35°-37° C., 20-24 hours; read-out: MIC. The data set is classed as cell-based.
In a further data set the test system is Ps. aeruginosa K799/WT. Description: Antimicrobial spectrum, agar dilution MIC. Conditions: Pseudomonas aeruginosa, BHI agar, 35°-37° C., 20-24 hours. The data set is classed as cell-based.
A further data set has as its system Ps. cepacia 2961. Description: Antimicrobial spectrum, agar dilution MIC. The format is cell-based. Particulars: Burkholderia cepacia; Ps. cepacia 2961; BHI agar, 35°-37° C., 20-24 hours; read-out: MIC.
A further data set concerns Micrococcus luteus 9341. Description: Antimicrobial spectrum, agar dilution MIC. The format is cell-based. Conditions: Micrococcus luteus, 9341.
The subject of another data set is Ps. aeruginosa BMH10. In words: Antimicrobial spectrum, agar dilution MIC. Conditions: Pseudomonas aeruginosa; Ps. aeruginosa BMH10; BHI agar, 35°-37° C., 20-24 hours; read-out: MIC. The data set is classed as cell-based.
The subject of the next data set is Strep. pyogenes. In words: Extended mouse protection study. Conditions: oral.
Another data set has as its system Staph. aureus A 5177. In words: Antimicrobial spectrum, agar dilution MIC. The data set is classed as cell-based. Conditions: Staphylococcus aureus, A5177; Staph. aureus A 5177; BHI agar, 35°-37° C., 20-24 hours; read-out: MIC.
The subject of the next data set is Ps. aeruginosa A5007. In words: Antimicrobial spectrum, agar dilution MIC. Particulars: Pseudomonas aeruginosa, BHI agar, 35°-37° C., 20-24 hours. The format is cell-based.
Data set [4] can be described thus: Stability and release of drug from prodrug in aqueous buffers pH 2 to 12 (dissolution apparatus, HPLC). The data set is classed as physicochemical. On the procedure:
Samples of 2'-trimethylsilylerythromycin A and 2'-trimethylsilyl-6-O-methylerythromycin A were dissolved in 10-50 ml dimethyl sulfoxide or acetonitrile to give a solution containing 15-75 mg/ml. An aliquot containing 75 mg of prodrug was added to aqueous buffers ranging in pH from 2 to 12 to give a final volume equal to 500 ml. The buffered mixtures were stirred at 37° C. for at least 90 minutes. A standard dissolution test apparatus (Vanderkamp 600, Van-Kel Industries, Inc., 36 Meridian Road, Edisoin, N.J. 08820) was used to provide temperature and stirring rate control.
Aliquots were taken at 15, 30, 45, 60, 90, 120, 180, 240 and 360 minutes for analysis. Each sample was mixed with an internal standard, adjusted rapidly to pH 9 with 1M tricine buffer and extracted immediately with ethyl acetate. The organic extracts were evaporated and redissolved in a solution of 3% tetrahydrofuran in heptane. Samples of these solutions were injected using an autosampler (WISP 71)B, Waters Chromatography, Division of Millipore, 34 Maple Street, Milford, Mass. 01757). The prodrugs and drugs were separated by high performance liquid chromatography, detected at 225 nm using a spectrophotometer (Spectroflow 773 Absorbence Detector, Kratos Analytical Instruments), and were quantified with a digital integrator.

The subject of another data set is Strep. pneumoniae. Description: Extended mouse protection study. Particulars: oral.
The mark [5] stands for this setting: Mus musculus, po, 168 h, oral administration.
[6] abbreviates: Mus musculus, sc, 168 h, subcutaneous administration.
The mark [7] stands for this setting: Mus musculus, po, 168 h, oral administration, read-out: ED50.
Setting [8] is: Mus musculus, sc, 168 h, subcutaneous administration, read-out: ED50.
Where [9] appears, read: carboxymethylcellulose with milk (reduces gastric acid secretion).
Setting [10] is: phosphate buffer solution with milk (reduces gastric acid secretion).

For orientation: ED50 means the dose at which the effect has come halfway, by size or by number of responders. As to `CC[C@H]1OC(=O)[C@H](C)[C@@H](O[C@H]2C[C@@](C)(OC)[C@@H](O)[C@H](C)O2)[C@H](C)[C@@H](O[C@@H]2O[C@H](C)C[C@H](N(C)C)[C@H]2O[Si](C)(C)C)[C@](C)(O)C[C@@H](C)C(=NO[Si](C)(C)C)[C@H](C)[C@@H](O)[C@]1(C)O` [Example 11, 2',9-bis(O-trimethylsilyl)-Erythromycin A-9-oxime], the ED50 with indicated test organism (setting [5]) turned out to be 150 mg/kg; in the data set with indicated test organism (setting [6]), 40 mg/kg.
A word on the MIC: it is the lowest concentration found to suppress growth. As to `CC[C@H]1OC(=O)[C@H](C)[C@@H](O[C@H]2C[C@@](C)(OC)[C@@H](O)[C@H](C)O2)[C@H](C)[C@@H](O[C@@H]2O[C@H](C)C[C@H](N(C)C)[C@H]2O)[C@](C)(O)C[C@@H](C)C(=O)[C@H](C)[C@@H](O)[C@]1(C)O` [Erythromycin A, reference compound], the MIC in [1] came to 0.05 µg/mL (≈ 0.0681 µM); against Strep. pyogenes 930 it was 100 µg/mL (≈ 136 µM); in data set [2], 100 µg/mL (≈ 136 µM); in [3], 100 µg/mL (≈ 136 µM); against Ps. aeruginosa K799/WT, 100 µg/mL (≈ 136 µM); in the data set on Ps. cepacia 2961, 100 µg/mL (≈ 136 µM). Further, the MIC against Micrococcus luteus 9341 was determined as 0.02 µg/mL (≈ 0.0273 µM); in the data set on Ps. aeruginosa BMH10, 100 µg/mL (≈ 136 µM); in the data set on Staph. aureus A 5177 it was 0.78 µg/mL (≈ 1.06 µM); with Ps. aeruginosa A5007, 100 µg/mL (≈ 136 µM). The ED50 in the data set with Staph. aureus (carboxymethylcellulose) was found to be 86.0 mg/kg/day; in the data set on Staph. aureus (phosphate buffer solution) it was 75.7 mg/kg/day; with indicated test organism (setting [7]), 75.7 mg/kg; in the data set with indicated test organism (setting [8]), 10.9 mg/kg; in the data set with indicated test organism (oral administration, 10080 min) it was 48.8 mg/kg/day; in the data set with Strep. pyogenes (phosphate buffer solution), 37.2 mg/kg/day.
For `CC[C@H]1OC(=O)[C@H](C)[C@@H](O[C@H]2C[C@@](C)(OC)[C@@H](O[Si](C)(C)C)[C@H](C)O2)[C@H](C)[C@@H](O[C@@H]2O[C@H](C)C[C@H](N(C)C)[C@H]2O)[C@](C)(OC)C[C@@H](C)C(=O)[C@H](C)[C@@H](O[Si](C)(C)C)[C@]1(C)O` [Example 10, 4"-11-bis(O-TMS)-6-O-methyl erythromycin A], the ED50 with indicated test organism (setting [7]) came out at 51.8 mg/kg; in the data set with indicated test organism (setting [6]), 40 mg/kg.
`CC[C@H]1OC(=O)[C@H](C)[C@@H](O[C@H]2C[C@@](C)(OC)[C@@H](O[Si](C)(C)C)[C@H](C)O2)[C@H](C)[C@@H](O[C@@H]2O[C@H](C)C[C@H](N(C)C)[C@H]2O)[C@](C)(O)C[C@@H](C)C(=O)[C@H](C)[C@@H](O)[C@]1(C)O` [Example 8, 4"-O-trimethylsilyl erythromycin A]: the ED50 in the data set with indicated test organism (setting [7]) is 99.7 mg/kg; in the data set on indicated test organism (setting [8]), 16 mg/kg; with indicated test organism (oral administration, listed as 4"-O--TMS Ery A, 10080 min), 61.5 mg/kg/day.
Turning to `CC[C@H]1OC(=O)[C@H](C)[C@@H](O[C@H]2C[C@@](C)(OC)[C@@H](O[Si](C)(C)C)[C@H](C)O2)[C@H](C)[C@@H](O[C@@H]2O[C@H](C)C[C@H](N(C)C)[C@H]2OC(C)=O)[C@](C)(O)C[C@@H](C)C(=O)[C@H](C)[C@@H](O[Si](C)(C)C)[C@]1(C)O` [Example 12, 2'-Acetyl-4",11-bis (-O-TMS)-Erythromycin A], the ED50 was determined as 250 mg/kg in the data set on indicated test organism (setting [5]) and 40 mg/kg in the data set with indicated test organism (setting [6]).
For the compound `CC[C@H]1OC(=O)[C@H](C)[C@@H](O[C@H]2C[C@@](C)(OC)[C@@H](O)[C@H](C)O2)[C@H](C)[C@@H](O[C@@H]2O[C@H](C)C[C@H](N(C)C)[C@H]2O[Si](C)(C)C)[C@](C)(O)C[C@@H](C)C(=O)[C@H](C)[C@@H](O)[C@]1(C)O` [Example 2, 2'-O-Trimethylsilyl Erythromycin A], the degradation entry in [4] (pH 2 and 4, 37° C.) is “degraded to anhydroerythromycin A”. In data set [4] (pH 6, 37° C.), the anhydroerythromycin formed entry was “significant amounts” and the “erythromycin A detected” value is reported as “A very small amount”. In addition, the erythromycin formed entry in data set [4] (pH 8, 10 or 12, 37° C.) is “No erythromycin was formed”.
As to `CC[C@H]1OC(=O)[C@H](C)[C@@H](O[C@H]2C[C@@](C)(OC)[C@@H](O)[C@H](C)O2)[C@H](C)[C@@H](O[C@@H]2O[C@H](C)C[C@H](N(C)C)[C@H]2O)[C@](C)(OC)C[C@@H](C)C(=O)[C@H](C)[C@@H](O)[C@]1(C)O` [6-O-methyl erythromycin A], the 50% effective dose (ED50) in the data set on Staph. aureus (carboxymethylcellulose) is on record as 25.0 mg/kg/day; in the data set with Staph. aureus (phosphate buffer solution), 27.2 mg/kg/day; in the data set with Strep. pyogenes (setting [9]), 5.3 mg/kg/day; in the data set with Strep. pyogenes (phosphate buffer solution) it was 5.9 mg/kg/day; with Strep. pyogenes (setting [10]) it was 11.1 mg/kg/day; in the data set with Strep. pneumoniae (carboxymethylcellulose) it was 2.4 mg/kg/day. Further, the ED50 in the data set with Strep. pneumoniae (setting [9]) is 2.2 mg/kg/day; in the data set with Strep. pneumoniae (phosphate buffer solution), 1.6 mg/kg/day; in the data set with Strep. pneumoniae (setting [10]) it was 1.6 mg/kg/day.
